Patent US20050143468A1, “Method of treating vascular endothelial growth factor mediated vascular disorders” (priority 2002, published 2005)

Test system: choroidal neovascularization
Assay: choroidal NV in a mouse model, topical administration
Format: in vivo
Conditions: applicant's previous findings

NC(=O)Cc1cccc(C(=O)c2ccccc2)c1N [nepafenac]
choroidal NV: inhibited
